Test system: Zebrafish wild-type (WT) embryos
Test: Absorption (internal concentration) of cephalosporins in zebrafish embryos by LC-MS/MS
Conditions: 6 hpf-3 dpf; for k-value (slope of the dose-internal concentration linear regression): zebrafish embryos, 0.28, 1.0 and 2.0 mM, higher k = more readily absorbed
Method: Zebrafish (Danio rerio) were fed at the Institute of Medicinal Biotechnology, Beijing Union Medical College, Beijing, China. […] Zebrafish wild-type (WT) embryos (n = 30) at 6 h post-fertilization (6 hpf) were used. After immersing the embryos in 2 mL of each drug solution (Drugs were dissolved in breeding water), they were incubated in a 20 mm dish for 3 days. […] The zebrafish bodies were collected at 3 days post-fertilization (dpf). The blank controls were zebrafish WT embryos (n = 30) that were incubated in breeding water.
Using a cell strainer (100 μm, BD-Falcon, United States), zebrafish bodies (30 in each dish) were washed five times with deionized water. Zebrafish bodies were triturated in 100 μL of deionized water, and then they were homogenized for 1 min. Zebrafish homogenate (50 μL) and internal standard (IS) working solution (10 μL) were individually transferred into a 1.5-mL microcentrifuge tube. Then, 200 μL of 1% formic acid-methanol solution was added into the tube. The samples were vortexed for 20 s. To precipitate proteins, the samples were centrifuged at 10,800 g for 10 min. The resultant supernatant (10 μL) was injected into LC-MS/MS for analysis.
The LC-MS/MS technique was performed by combining a 20A LC (Shimadzu, Kyoto, Japan) and a 6500 Q-Trap mass spectrometer (AB Sciex, Foster City, CA, United States), which was equipped with an electrospray ionization (ESI) source. Moreover, LC separations were performed on a reversed-phase ACE C18 column (5 cm × 2.1 mm ID, 3 μm particle size, Advanced Chromatography Technologies, Aberdeen, United Kingdom), which was attached to a corresponding guard column (1 cm × 2.1 mm ID, 3 μm particle size; Advanced Chromatography Technologies, United Kingdom). The mobile phase comprised of 5 mM ammonium formate (pH = 3.5) (solvent A) and acetonitrile (solvent B). The composition of the gradient was as follows: 2% solvent B for the first 0.1 min; 3.5 min, 90% solvent B; 6.0 min, 90% solvent B; 6.1 min, 2% solvent B; and 10 min, 2% solvent B. Mass spectrometric analysis was performed in a positive mode. Ion-spray voltage was set at 5000 V, and source temperature was kept fixed at 500°C. Curtain gas, gas 1, and gas 2 were 25, 40, and 40 psi, respectively. Multiple reaction monitoring (MRM) scan was used for the quantification of 19 analytes. In this scan, we determined the most intense product ion (PI) of each analyte. The entrance potential (EP) of all analytes was 10 eV. For each ion transition, dwell time and pause time were set to 30 and 5 ms, respectively. The Analyst 1.6.2 software (AB Sciex, Foster City, CA, United States) was used to perform data acquisition and analysis.
Dose-internal concentration curves were constructed by linear regression analysis. The slope of each linear regression was defined as k-value for each drug. […] The entire data set was split into the training set and test set by a random index, which was operated by DS4.0 software. The training set percentage was set at 80.
Using the aforementioned method, we analyzed the internal concentrations of cephalosporins in zebrafish. […] The calibration samples and administration samples were processed in a timely manner. The internal concentration of each cephalosporin in the zebrafish was calculated by using the corresponding calibration curve (Table 2). […] Dose-internal concentration curves were constructed by linear regression analysis (Figure 1). For each drug, the slope of each linear regression was defined as k-value. This parameter was used to evaluate the absorption capacity of each drug.

[1] = zebrafish embryos exposed to 0.28 mM drug solution
[2] = zebrafish embryos exposed to 1 mM drug solution
[3] = zebrafish embryos exposed to 2 mM drug solution

Row | Internal concentration [1] [mM × 10^-5] | Internal concentration [2] [mM × 10^-5] | Internal concentration [3] [mM × 10^-5] | k-value (slope of the dose-internal concentration linear regression) | Compound | other results
1 | 1.17 | 3.70 | 13.15 | 7.1156 | CO/N=C(\C(=O)N[C@@H]1C(=O)N2C(C(=O)O)=CCS[C@H]12)c1csc(N)n1 [Ceftizoxime] | k-value (slope of the dose-internal concentration linear regression) (listed as ceftizoxime): > 5
2 | 1.07 | 8.30 | 11.54 | 5.9111 | CO[C@@]1(NC(=O)CSC(F)F)C(=O)N2C(C(=O)O)=C(CSc3nnnn3CCO)CO[C@@H]21 [Flomoxef] | k-value (slope of the dose-internal concentration linear regression) (listed as flomoxef): > 5
3 | 0.00 | 2.45 | 5.47 | 3.1702 | CC(C)(O/N=C(\C(=O)N[C@@H]1C(=O)N2C(C(=O)[O-])=C(C[n+]3ccccc3)CS[C@H]12)c1csc(N)n1)C(=O)O [Ceftazidime] | k-value (slope of the dose-internal concentration linear regression) (listed as ceftazidime): < 5
4 | 1.01 | 3.43 | 9.49 | 5.0027 | N[C@@H](C(=O)N[C@@H]1C(=O)N2C(C(=O)O)=C(Cl)CS[C@H]12)c1ccccc1 [Cefaclor] | k-value (slope of the dose-internal concentration linear regression) (listed as cefaclor): > 5
5 | 1.01 | 5.48 | 16.83 | 9.3280 | CC1=C(C(=O)O)N2C(=O)[C@@H](NC(=O)[C@H](N)c3ccccc3)[C@H]2SC1 [Cefalexin] | 
6 | 0.25 | 1.31 | 3.73 | 2.0488 | CN(C)CCn1nnnc1SCC1=C(C(=O)O)N2C(=O)[C@@H](NC(=O)Cc3csc(N)n3)[C@H]2SC1 [Cefotiam] | k-value (slope of the dose-internal concentration linear regression) (listed as cefotiam): < 5
7 | 0.51 | 0.94 | 3.47 | 1.7709 | CO/N=C(\C(=O)N[C@@H]1C(=O)N2C(C(=O)O)=C(CSc3nc(C)c(CC(=O)O)s3)CS[C@H]12)c1csc(N)n1 [Cefodizime] | k-value (slope of the dose-internal concentration linear regression) (listed as cefodizime): < 5
8 | 1.30 | 5.75 | 12.47 | 6.5063 | CCN1CCN(C(=O)N[C@@H](C(=O)N[C@@H]2C(=O)N3C(C(=O)O)=C(CSc4nnnn4C)CS[C@H]23)c2ccc(O)cc2)C(=O)C1=O [Cefoperazone] | k-value (slope of the dose-internal concentration linear regression) (listed as cefoperazone): > 5
9 | 8.56 | 13.95 | 14.19 | 3.0851 | Cc1nnc(SCC2=C(C(=O)O)N3C(=O)[C@@H](NC(=O)Cn4cnnn4)[C@H]3SC2)s1 [Cefazolin] | k-value (slope of the dose-internal concentration linear regression) (listed as cefazolin): < 5
10 | 0.21 | 0.86 | 1.67 | < 5 | CO/N=C(\C(=O)N[C@@H]1C(=O)N2C(C(=O)[O-])=C(C[n+]3cccc4c3CCC4)CS[C@H]12)c1csc(N)n1 [Cefpirome] | 
11 | 3.95 | 7.08 | 12.96 | 5.2798 | O=C(Cn1cnnn1)N[C@@H]1C(=O)N2C(C(=O)O)=C(CSc3nncs3)CS[C@H]12 [Ceftezole] | k-value (slope of the dose-internal concentration linear regression) (listed as ceftezole): > 5
12 | 2.22 | 12.73 | 18.39 | 9.1638 | CO[C@@]1(NC(=O)Cc2cccs2)C(=O)N2C(C(=O)O)=C(COC(N)=O)CS[C@@H]21 [Cefoxitin] | k-value (slope of the dose-internal concentration linear regression) (listed as cefoxitin): > 5
13 | 3.15 | 8.93 | 19.89 | 9.8110 | CC1=C(C(=O)O)N2C(=O)[C@@H](NC(=O)[C@H](N)C3=CCC=CC3)[C@H]2SC1 [Cefradine] | k-value (slope of the dose-internal concentration linear regression) (listed as cefradine): > 5
14 | 0.68 | 1.55 | 4.66 | 2.3643 | CO/N=C(\C(=O)N[C@@H]1C(=O)N2C(C(=O)O)=C(COC(N)=O)CS[C@H]12)c1ccco1 [Cefuroxime] | k-value (slope of the dose-internal concentration linear regression) (listed as cefuroxime): < 5
15 | 0.00 | 0.71 | 1.14 | 0.6493 | CO/N=C(\C(=O)N[C@@H]1C(=O)N2C(C(=O)O)=C(CSc3nnnn3C)CS[C@H]12)c1csc(N)n1 [Cefmenoxime] | k-value (slope of the dose-internal concentration linear regression) (listed as cefmenoxime): < 5

Row | Compound | Internal concentration [1] [mM × 10^-5] | Internal concentration [2] [mM × 10^-5] | Internal concentration [3] [mM × 10^-5] | k-value (slope of the dose-internal concentration linear regression) | other results
16 | CC(=O)OCC1=C(C(=O)O)N2C(=O)[C@@H](NC(=O)CSC(=NC(C)C)NC(C)C)[C@H]2SC1 [Cefathiamidine] | 0.49 | 1.29 | 1.63 | 0.6439 | k-value (slope of the dose-internal concentration linear regression) (listed as cefathiamidine): < 5
17 | CC1=C(C(=O)O)N2C(=O)[C@@H](NC(=O)[C@H](N)c3ccc(O)cc3)[C@H]2SC1 [Cefadroxil] | 1.32 | 7.07 | 12.55 | 6.4617 | k-value (slope of the dose-internal concentration linear regression) (listed as cefadroxil): > 5
18 | CO/N=C(\C(=O)N[C@@H]1C(=O)N2C(C(=O)O)=C(COC(C)=O)CS[C@H]12)c1csc(N)n1 [Cefotaxime] | 0.27 | 0.75 | 0.82 |  | 

— paper PMC6361752, “Construction of a Quantitative Structure Activity Relationship (QSAR) Model to Predict the Absorption of Cephalosporins in Zebrafish for Toxicity Study” (Frontiers in Pharmacology, 2019)
